Counter-ions that a name gives are not always drawn.
What was measured:
gastric secretion = test: Inhibition of gastric secretion (pylorus ligation, Shay method); type: in vivo, Male Sprague-Dawley rats; conditions: 20 mg/kg intraduodenally, 5 hours; for Rel. Conc.: acid concentration relative to omeprazole; for Relative Acid Output: acid output relative to omeprazole; for Rel. Vol.: gastric juice volume relative to omeprazole
How it was run: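 Rats under ether anaesthesia had the pylorus ligated, and the stomach was removed 5 h later. Gastric juice was centrifuged at 1,000 g, and its volume and acidity were measured. Relative volume, relative acid concentration and relative acid output […] were then calculated.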

[1] = target: proton pump(H^+ /K^+ ATPase); test: Inhibition of proton pump(H^+ /K^+ ATPase) activity; type: biochemical; conditions: pH 6.0, 37° C., 30 minutes preincubation and 30 minutes reaction; read-out: IC50 Test compound
How it was run: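 Enzyme was preincubated with compound at five concentrations for 30 min at 37° C in Tris-HCl pH 6.0 with Mg2+, K+ and NH4Cl. Reaction ran 30 min at 37° C with ATP and was stopped with trichloroacetic acid. K+-stimulated inorganic phosphate release gave IC50 by Litchfield-Wilcoxon.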

H^+ /K^+ -ATPase = test: Reversibility Test (Dilution and Washout method, gastric vesicles); type: biochemical; conditions: compound 50 μM
Procedure: Test 3. Reversibility Test
Gastric vesicles were prepared by the same method as in Experiment 4-1 of WO 94/14795. The inhibition mechanism of proton pump activity by the present invention compound was tested in accordance with the so-called Dilution and Washout method [see e.g., D. J. Keeling, et al., Biochemical Pharmacology, 42(1), 123-130(1991)].
Namely, test tubes were divided into two group, Groups 1 and 2. Each group was divided into four subgroups. 90 μl of 5 mM Pipes/Tris buffer(pH 7.4) and 10 μl of DMSO were added to subgroups 1 and 2 of each group. 90 μl of 5 mM Pipes/Tris buffer(pH 7.4) and 10 μl of the compound prepared in Example 43(50 μM) were added to subgroups 3 and 4 of each group. To all two groups, was added 100 μl of lyophilized vesicles at the concentration of 100 μg protein/ml and then preincubated at 37° C. for 15 minutes.
2 mM MgCl2 was added to subgroups 1 and 3 of Group 1. 2 mM MgCl2 and 10 mM KCl were added to subgroups 2 and 4 of Group 1. 3 mM ATP was added to all subgroups of Group 1 until the final volume became 500 μl. After incubation for 30 minutes, the inhibition of H^+ /K^+ -ATPase activity by the test compound was measured.
After preincubation as described above, each subgroup of Group 2 was diluted with 50-fold volume of 5 mM Pipes/Tris buffer(pH7.4) and then centrifuged for 60 minutes by means of Beckman ultracentrifuge(Model L8-80). The supernatant was discarded and washed out by 10 ml of 5 mM Pipes/Tris buffer(ph 7.4). The resulting pellet was suspended with 5 mM Pipes/Tris buffer (pH7.4) until the volume became the same as the preincubation volume.
Thereafter, in accordance with the treatment to Group 1, each subgroup of Group 2 was treated with 2 mM MgCl2, 10 mM KCl and 3 mM ATP. And the final volume of each subgroup of Group 2 was made to be 500 μl.
And it was further measured in accordance with the same procedures as above, except the compound prepared in Example 75 was used as a test compound.

proton pump = conditions: in words, background; cited from earlier work

Structure (SMILES) | IC50 [1] [nM] | inhibition of H^+ /K^+ ATPase activity, after Dilution & Washout (H^+ /K^+ -ATPase) [%] | inhibition of H^+ /K^+ ATPase activity, before Dilution & Washout (H^+ /K^+ -ATPase) [%] | Rel. Conc. (gastric secretion) | Relative Acid Output (gastric secretion) | Rel. Vol. (gastric secretion) | reversibility of proton pump inhibition (proton pump)
Cc1cc(Nc2ccc(F)cc2)nc(N2CCc3ccsc3C2C)n1.Cl (stereo not drawn) [Example 60, 6-methyl-4-(4-fluorophenylamino)-2-(7-methyl-4,5,6,7-tetrahydrothieno[2,3-c]pyridin-6-yl)pyrimidine hydrochloride] | ~15000 | – | – | 0.28 | 0.65 | 0.65 | –
CCc1cc(Nc2ccc(F)cc2C)nc(N2CCc3ccccc3C2C)n1.Cl (stereo not drawn) [Example 61, 6-Ethyl-4-(2-methyl-4-fluorophenylamino)-2-(1-methyl-1,2,3,4-tetrahydroisoquinolin-2-yl)pyrimidine hydrochloride] | ~12500 | – | – | 0.22 | 0.40 | 0.32 | –
CCc1cc(Nc2ccc(F)cc2C)nc(N2CCc3ccccc3C2)n1.Cl [Example 62, 6-ethyl-4-(2-methyl-4-fluorophenylamino)-2-(1,2,3,4-tetrahydroisoquinolin-2-yl)pyrimidine hydrochloride] | > 20000 | – | – | 0.31 | 0.67 | 0.61 | –
CCc1cc(Nc2ccc(F)cc2)nc(N2CCc3ccccc3C2)n1.Cl [Example 63, 6-ethyl-4-(4-fluorophenylamino)-2-(1,2,3,4-tetrahydroisoquinolin-2-yl)pyrimidine hydrochloride] | ~12000 | – | – | 0.33 | 0.72 | 0.69 | –
CCc1cc(N(C)c2ccccc2)nc(N2CCc3ccccc3C2)n1.Cl [Example 64, 6-ethyl-4-(N-methylphenylamino)-2-(1,2,3,4-tetrahydroisoquinolin-2-yl)pyrimidine hydrochloride] | ~10000 | – | – | 0.26 | 0.40 | 0.34 | –
Cc1cc(F)ccc1Nc1nc(N2CCc3ccccc3[C@@H]2C)nc(C)c1C.Cl [Example 67, (S)-5,6-dimethyl-4-(2-methyl-4-fluorophenylamino)-2-(1-methyl-1,2,3,4-tetrahydroisoquinolin-2-yl)pyrimidine hydrochloride] | 1300 | – | – | 0.31 | 0.62 | 1.36 | –
Cc1nc(N2CCc3ccccc3C2C)nc(Nc2ccc(F)cc2)c1C.Cl (stereo not drawn) [Example 68, 5,6-dimethyl-4-(4-fluorophenylamino)-2-(1-methyl-1,2,3,4-tetrahydroisoquinolin-2-yl)pyrimidine hydrochloride] | 3100 | – | – | 0.23 | 0.67 | 1.52 | –
Cc1nc(N2CCc3ccccc3[C@H]2C)nc(Nc2ccc(F)cc2)c1C.Cl [Example 69, (R)-5,6-dimethyl-4-(4-fluorophenylamino)-2-(1-methyl-1,2,3,4-tetrahydroisoquinolin-2-yl)pyrimidine hydrochloride] | 2900 | – | – | 0.39 | 0.76 | 1.61 | –
Cc1nc(N2CCc3ccccc3[C@@H]2C)nc(Nc2ccc(F)cc2)c1C.Cl [Example 70, (S)-5,6-dimethyl-4-(4-fluorophenylamino)-2-(1-methyl-1,2,3,4-tetrahydroisoquinolin-2-yl)pyrimidine hydrochloride] | 3500 | – | – | 0.22 | 0.61 | 1.3 | –
Cc1nc(N2CCc3ccccc3C2)nc(Nc2ccc(F)cc2)c1C.Cl [Example 75, 5,6-dimethyl-4-(4-fluorophenylamino)-2-(1,2,3,4-tetrahydroisoquinolin-2-yl)pyrimidine hydrochloride] | 1200 | 15 | 66.6 | 1.62 | 1.20 | 1.3 | –
Cc1cc(F)ccc1Nc1nc(N2CCc3ccsc3C2C)nc(C)c1C.Cl (stereo not drawn) [Example 77, 5,6-dimethyl-4-(2-methyl-4-fluorophenylamino)-2-(7-methyl-4,5,6,7-tetrahydrothieno[2,3-c]pyridin-6-yl)pyrimidine hydrochloride] | 3600 | – | – | 1.63 | 1.30 | 1.48 | –
Cc1nc(N2CCc3ccsc3C2C)nc(Nc2ccc(F)cc2)c1C.Cl (stereo not drawn) [Example 78, 5,6-dimethyl-2-(7-methyl-4,5,6,7-tetrahydrothieno[2,3-c]pyridin-6-yl)-4-(4-fluorophenylamino)pyrimidine hydrochloride] | 8500 | – | – | 1.75 | 1.09 | 1.06 | –
Cc1cc(F)ccc1Nc1nc(N2CCc3ccccc3C2)nc2c1CCCC2.Cl [Example 83, 4-(2-methyl-4-fluorophenylamino)-2-(1,2,3,4-tetrahydroisoquinolin-2-yl)-5,6,7,8-tetrahydroquinazoline hydrochloride] | 1400 | – | – | 1.29 | 1.13 | 1.19 | –
COc1ccc2[nH]c([S+]([O-])Cc3ncc(C)c(OC)c3C)nc2c1 (stereo not drawn) [Omeprazole, omeprazole, reference compound] | – | – | – | – | – | – | irreversible

More lines, main results first:

IC50 [1] [nM] | inhibition of H^+ /K^+ ATPase activity, after Dilution & Washout (H^+ /K^+ -ATPase) [%] | inhibition of H^+ /K^+ ATPase activity, before Dilution & Washout (H^+ /K^+ -ATPase) [%] | Structure (SMILES) | Rel. Conc. (gastric secretion) | Relative Acid Output (gastric secretion) | Rel. Vol. (gastric secretion) | reversibility of proton pump inhibition (proton pump)
500 | 6 | 62 | Cc1nc(N(C)c2ccccc2)nc(N2CCc3ccccc3C2)c1C.Cl [Example 43, 5,6-dimethyl-2-(N-methylphenylamino)-4-(1,2,3,4-tetrahydroisoquinolin-2-yl)pyrimidine hydrochloride] | 0.59 | 0.82 | 0.7 | –
1000 | – | – | Cc1cc(F)ccc1Nc1nc(N2CCc3ccccc3C2C)nc(C)c1C.Cl (stereo not drawn) [Example 65, 5,6-dimethyl-4-(2-methyl-4-fluorophenylamino)-2-(1-methyl-1,2,3,4-tetrahydroisoquinolin-2-yl)pyrimidine hydrochloride] | 0.35 | 0.71 | 1.43 | –
900 | – | – | Cc1cc(F)ccc1Nc1nc(N2CCc3ccccc3[C@H]2C)nc(C)c1C.Cl [Example 66, (R)-5,6-dimethyl-4-(2-methyl-4-fluorophenylamino)-2-(1-methyl-1,2,3,4-tetrahydroisoquinolin-2-yl)pyrimidine hydrochloride] | 0.47 | 0.85 | 1.49 | –
500 | – | – | Cc1cc(F)ccc1Nc1nc(N2CCc3ccccc3C2)nc(C)c1C.Cl [Example 74, 5,6-dimethyl-4-(2-methyl-4-fluorophenylamino)-2-(1,2,3,4-tetrahydroisoquinolin-2-yl)pyrimidine hydrochloride] | 1.49 | 1.16 | 1.22 | –
400 | – | – | Cc1cc(F)ccc1Nc1nc(N2CCc3ccccc3C2C)nc2c1CCC2 (stereo not drawn) [Example 81, hydrochloride] | 0.47 | 0.68 | 0.56 | –
1100 | – | – | Cc1cc(F)ccc1Nc1nc(N2CCc3ccccc3C2C)nc2c1CCCC2.Cl (stereo not drawn) [Example 82, 4-(2-Methyl-4-fluorophenylamino)-2-(1-methyl-1,2,3,4-tetrahydroisoquinolin-2-yl)-5,6,7,8-tetrahydroquinazoline hydrochloride] | 0.59 | 0.79 | 0.69 | –

Reference: patent US5750531A, “Pyrimidine derivatives and processes for the preparation thereof” (Yuhan Corporation, priority 1994, dated 1998)
